The source of these data is patent US20130295115A1, “COMPOSITIONS AND METHODS FOR TREATING […]” (priority 2010, published 2013).

In test [1] the target is human Natural Resistance-Associated Macrophage Protein 2 (hNRAMP2) (human) (UniProt P49281). The test can be described thus: cell-based or functional assay.
The subject of test [2] is Vesicular Stomatitis Virus. Type of test: cell-based.
Another test has as its system West Nile virus. The test is classed as cell-based.
The test system of test [3] is Sindbis virus. The test is classed as cell-based.
The next test deals with hNRAMP2. Briefly: NRAMP2 expression (RT-PCR) in U2OS cells with iron. The test is classed as cell-based, human. As for the experimental part: Cells were treated with 160 μM Ammonium Iron(III) Citrate for three days prior to and throughout the infection.
Total RNA was purified using Trizol and used for reverse transcription with random priming and MLV-RT (Invitrogen) followed by PCR using the indicated primers.

The next test has as its system Ross River virus. Type of test: cell-based. Particulars: iron treatment (not shown).
Test [4] deals with Venezuelan Equine Encephalitis virus (VEE). Type of test: cell-based.
Another test addresses Sindbis virus / NRAMP2 (Homo sapiens, UniProt P49281). The test is classed as cell-based.
In test [5] the test system is Sindbis virus. Type of test: cell-based. The source holds these as a separate data set.

Sindbis virus / NRAMP2, sequence (P49281 whole entry, looked up): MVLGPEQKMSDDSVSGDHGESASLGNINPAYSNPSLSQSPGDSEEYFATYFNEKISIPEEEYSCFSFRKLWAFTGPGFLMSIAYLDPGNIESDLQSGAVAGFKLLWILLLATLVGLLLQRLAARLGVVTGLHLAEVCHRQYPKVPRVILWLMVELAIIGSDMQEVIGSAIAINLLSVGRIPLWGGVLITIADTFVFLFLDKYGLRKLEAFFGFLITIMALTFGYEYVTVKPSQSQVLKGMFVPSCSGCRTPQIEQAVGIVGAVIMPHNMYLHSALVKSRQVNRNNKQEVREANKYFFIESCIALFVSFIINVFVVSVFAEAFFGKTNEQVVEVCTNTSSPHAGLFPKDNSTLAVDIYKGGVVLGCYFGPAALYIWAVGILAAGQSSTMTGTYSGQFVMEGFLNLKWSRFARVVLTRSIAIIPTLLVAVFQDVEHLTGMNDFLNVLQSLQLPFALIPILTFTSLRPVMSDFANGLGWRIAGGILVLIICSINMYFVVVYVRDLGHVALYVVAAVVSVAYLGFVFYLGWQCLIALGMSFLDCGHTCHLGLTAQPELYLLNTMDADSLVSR
human Natural Resistance-Associated Macrophage Protein 2 (hNRAMP2) (human), sequence (P49281 whole entry): as the sequence (P49281 whole entry, looked up) above

In test [1], “Sindbis virus (biotinylated infectious virus particles)” showed a percentage of infected cells on NRAMP2 over-expression of 2 fold.
On to Ammonium Iron(III) Citrate, for which, in [2], the VSV infection entry was “no effect”. In addition, in the test with West Nile virus, the “West Nile virus infection” value is listed as “no effect”. Further, the “reduction in virus binding to iron-treated cells compared to controls” value in the test on Sindbis virus [3] is recorded as around 17 fold. The NRAMP2 expression entry with hNRAMP2 (NRAMP2 over-expressing cells treated with iron (FIG. 7A)) is recorded as “decrease”. In addition, in the test on hNRAMP2 (U2OS cells, high iron (FIG. 7A)), the NRAMP2 expression result is “decreased”. Besides, in the test with Ross River virus, the “Ross River virus infection” value is recorded as “insensitive”. The VEE infection entry in [4] is listed as “sensitive”. Also, at Sindbis virus / NRAMP2, the “NRAMP2 co-precipitation with Sindbis virus” value is on record as “lost” and the “Sindbis virus binding (streptavidin precipitation, immunoblot)” value is “attenuated”.
With `Cl.N` [ammonium chloride], the Sindbis infection entry with Sindbis virus [5] is listed as “inhibited infection”.
